Results reported in US20050059639A1, “Ophthalmic compositions and method for treating eye discomfort and pain” (priority 2003, published 2005).
Marks after values point to notes of the source that are not given here.

Experiments:
eye disorders = assay: Estimate of ideal therapeutic eye drop concentration to relieve eye disorders; format: in vivo, human; conditions: estimate of ideal therapeutic concentration applied as eye drops to relieve eye disorders
Description: (§1) The therapeutic concentrations of the preferred analogs are in the range of 10 to 80 μg/ml […], but concentrations as low as 0.1 μg/ml may elicit effects in sensitive individuals.
The potency of certain specific trialkyl phosphine oxides, e.g. isopropyl, sec-butyl, n-octyl-phosphine oxide, in relieving eye discomfort is exceptionally high, on the order of 0.001%. In such situations, an alternative preferred description of an effective unit dose is 0.01 mg/ml or 10 μg/ml, which is equivalent to 0.001% weight percent.

[1] = test system: tongue of human volunteers; assay: Cooling sensations when applied to the tongue of human volunteers; format: in vivo; conditions: for Duration of Action: duration of the cooling action on the tongue; for Relative Potency: reciprocal of threshold, normalized to unity for analogs with 1.25 μg/ml; for Threshold: threshold for producing cooling sensations on the tongue of human volunteers
Description: as §1

[2] = test system: medial canthus of the eyelids; assay: Sensory quality of the solution on the medial canthus of the eyelids / eye surface; format: in vivo, human; conditions: solution applied on the medial canthus of the eyelids
Text: [table] In selecting a particular analog, it is desirable to have one that has a long duration of action (several hours) and minimal stinging and burning sensations. These parameters are not predicted by the cooling effect of these substances on the human tongue, but must be determined by experiment. […] Thus, the hexyl analog is the preferred therapeutic of the two. The other particularly preferred analogs that have the desired qualities of long duration of action and absence of stinging and burning effects are identified with an asterisk in Table 1.

conjunctivitis = assay: Eye drops in subjects with allergic conjunctivitis; format: in vivo, human; conditions: for stinging sensations: 0.1% solution, medial canthus/closed eye, about every 8 hours
Text: A subject, suffered from seasonal allergy. During the months of March through May, they would wake up in the morning sneezing, with a runny nose, and itchy eyes. The rhinitis, nasal congestion and obstruction were relieved to some extent by taking a Claritin® antihistamine tablet, but the symptoms of itchy, tearing, and red eyes were not. This individual applied, by the medial canthus/closed eye method in which they had been instructed, several drops of a 0.1% solution disec-butyl-n-pentyl-phosphine oxide ophthalmic eye drop solution, into each eye about every 8 hours for two days. […] They felt more clear-sighted and vigilant, and was of the opinion that the eye drops had therapeutic value for their conjunctivitis. Similar results were obtained with 3 additional subjects suffering from ocular allergies. A subject, suffered from perennial rhinitis that was aggravated by sinusitis, nasal surgery, and a prolonged course of antibiotics. They developed a generalized allergic condition with severe itchy rash on their back, dermatitis on their face (especially on their cheeks), and had itchy, puffy and red eyes. This individual applied, by the medial canthus/closed eye method in which they had been instructed, several drops of a 0.1% solution disec-butyl-pentyl-phosphine oxide ophthalmic solution into each eye for about every 8 hours for three days. […] The subject was of the opinion that the eye drops had therapeutic value for their conjunctivitis.

ocular pain = assay: Eye drops for ocular pain after refractive eye surgery (LASIK); format: in vivo, human
Text: A subject, underwent bilateral refractive eye surgery (LASIK) for myopia in order to maintain their qualifications for special duties in the military. On the first day after surgery their eye surfaces and eyelids were bright red from dilated and enlarged blood vessels, but there was little pain. However, on the second day, the individual suffered excruciating pain from their eyes that was incapacitating and prevented them from going to work. This individual volunteered to apply eye drops of a 0.05% solution disec-butyl-n-hexyl-phosphine oxide ophthalamic into each eye for about every 6 hours for three days. They were instructed on how to instill the eye drops into the nasal corner (medial canthus) of their closed eyes and how to avoid the initial discomforts of the solution. […] They felt much better and was of the opinion that the eye drops had therapeutic value for ocular pain.

dry eyes = assay: Eye drops in contact lens user with dry eyes; format: in vivo, human; conditions: 0.2% solution with 0.5% carboxymethylcellulose
Text: The subject of example 4 is a daily user of disposable soft contact lenses, has “dry eyes”, and is a constant user of Refresh Eyes®, an artificial tears solution with 0.5% carboxymethylcellulose stored in a unit dispenser. They were instructed on how to instill the eye drops into the nasal corner (medial canthus) of their closed eyes and how to avoid the initial discomforts of the solution. The subject, who is an internationally-ranked tennis player, volunteered to self-administer, by the medial canthus/closed eye method, a 0.2% solution disec-butyl-n-hexyl-phosphine oxide ophthalmic solution containing 0.5% carboxymethylcellulose.

[3] = test system: opened eyes of volunteers; assay: Eye drops applied directly to the opened eyes of volunteers; format: in vivo, human
Description: (§2) For trialkyl phosphine oxide eye drop solutions of this invention, I have discovered an indirect method of application as follows. The eye dropper is aimed at the medial canthus (nasal corner) of the eye, the eye is then closed, the dispenser is squeezed to emit the eye drops, and the eye kept closed for about 1 min. This method of application can substantially avoid stinging and burning sensations. Apparently, the adaptation period of about 1 min allows the sensory processes to develop tolerance to the initial stinging and burning stimuli. For example, if a 0.4 mg/ml solution of disec-butyl, n-hexyl-phosphine oxide [synonym, 1-(Di-sec-butyl-phosphinoyl)-hexane] in isotonic-buffered saline is dropped on the open eye, it causes stinging and burning for about 1 min. However, applied onto the corners of the eye, with the eyes closed for 1 min, these stinging and burning sensations are avoided. The medial canthus is preferred to the lateral canthus because the geometry of the orbit permits a longer residence time for the eye drop applied to the medial corner. Drops applied to the lateral canthus are less precisely located and rapidly dribble off the zygoma (cheekbone). A user can be instructed in this indirect method by including the instructions on packaging labels and/or inserts associated with the doses.
A 0.05% (0.5 mg/ml) disec-butyl-n-hexyl-phosphine oxide eye drop solution was prepared by adding the compound to an isotonic solution of sodium chloride, 0.65% in deionized water, monobasic potassium phosphate/sodium hydroxide buffer, preserved with disodium EDTA and benzalkonium chloride. The liquid was individually aliquoted into a ¼ oz. bottle with a Yorker spout (E.D. Luce Packaging) suitable for droplet delivery. This solution was applied to the opened eyes of three volunteers, with two to three drops of the solution applied to each eye. The subjects complained of stinging and burning sensations on the eye surface, lasting for about 2 min and requiring the subjects to shut their eyes. […]

skin of upper eyes = assay: Application to skin of the upper eyes by swabstick (eye strain, contact lens user); format: in vivo, human
Description: Another modification of drug delivery was discovered. […] Example 4 notes that topical application of a 5% solution of a trialkyl phosphine oxide dissolved in pure propylene glycol produces robust cooling when applied in this manner.
A subject was stuck in traffic for over 2 hours on a hot and sunny (95° to 97° F.) day in an old car without air-conditioning. They were a user of soft contact lenses. […] They wanted to go on-line to work on a database project, but their eyestrain hindered their ability to focus. They volunteered to apply onto the skin of their upper eyes a 5% solution of disec-butyl-n-hexyl-phosphine oxide dissolved in 100% propylene glycol. A cotton swabstick was used to dab the solution onto the surfaces of the skin with extra care not touch the margins of the eyelids or eye surface. After drug application, a robust cooling sensation developed in the eyes that lasted for about 3 hours. […] They also reported that they felt more alert and energetic.

[4] = test system: closed eyes of volunteers; assay: Eye drops applied to medial canthus of closed eyes, kept closed about 1 min; format: in vivo, human
Description: as §2
The solution, as in Example 1, was then used by another three subjects with the instruction to apply the droplets to the nasal corner of the eye (medial canthus), without touching the tip of the dispenser to the eyelid surface, to let the solution seep into the eyelids and eye surface but to keep eyes closed for at least one minute. The subjects reported slight sensations of stinging when the eyes were opened, effects that lasted for less than 1 minute, followed by sensations of coolness and comfort lasting at least two hours. The experiment was then repeated, but with a higher concentration of 0.2% of disec-butyl-n-hexyl-phosphine oxide.
(§3) A 0.2% (2.0 mg/ml) disec-butyl-n-heptyl-phosphine oxide eye drop solution was prepared by adding the compound to an isotonic solution of sodium chloride, 0.65% in deionized water, monobasic potassium phosphate/sodium hydroxide buffer, preserved with disodium EDTA and benzalkonium chloride. The liquid was individually aliquoted into a ¼ oz. bottle with a Yorker spout (E.D. Luce Packaging) suitable for droplet delivery. This solution was then applied to the closed eyes of three volunteers, with two to three drops of the solution applied to each eye. The subjects complained of stinging and burning sensations on the eye surface, lasting for about 2 min. A series of six solutions were then prepared in which six different hydrocarbon polyols were added to the parent 0.2% solution. The individual additions were 1.5% sucrose, 1.5% fructose, 1.5% dextrose, 1.5% lactose, 1.5% inositol, or 0.5% carboxymethylcellulose. […] There was some tearing, but no evidence of increased eye redness from the hydrocarbon polyols and subjective complaints of discomfort were minimal.

[5] = test system: stinging and burning sensations on the eye; assay: Adjuncts to reduce stinging of trialkyl phosphine oxide eye drops; format: in vivo, human; conditions: in vivo
[6] = test system: stinging and burning sensations on the eye; assay: as above; format: in vivo, human; conditions: in vivo; remark: listed apart in the source
Description: I conclude that hydrocarbon polyols are useful adjuncts for preparing a therapeutic formulation of a trialkyl phosphine oxide eye drop solution.
as §3

[7] = 0.1% solution every 8 hours for two days, seasonal allergy
[8] = 0.2% solution, medial canthus/closed eye

CCCCCP(=O)(C(C)CC)C(C)CC (centres unmarked) [n-C5H11 / sec-C4H9 / sec-C4H9, disec-butyl-n-pentyl-phosphine oxide]
Eye Therapy (eye disorders): 60* μg/ml | Duration of Action [1]: 10 min | Relative Potency [1]: 1 | Threshold [1]: 1.25 µg/mL | Sensory Quality [2]: cool only | effect on eye discomfort (conjunctivitis; 0.1% solution every 8 hours for three days, generalized allergic condition): relief of discomfort | itching (conjunctivitis; [7]): substantially reduced | redness (conjunctivitis; [7]): diminished | stinging sensations (conjunctivitis): initial mild sensation of “stinging” | stinging sensations (conjunctivitis; listed as disec-butyl-pentyl-phosphine oxide): No significant stinging sensations

CCCCCCP(=O)(C(C)CC)C(C)CC (centres unmarked) [n-C6H13 / sec-C4H9 / sec-C4H9, 1-(Di-sec-butyl-phosphinoyl)-hexane]
Eye Therapy (eye disorders): 45 µg/mL | Duration of Action [1]: 20 min | potency on the human tongue (comparison of the two analogs) ([1]; hexyl vs heptyl analog): about equipotent | Relative Potency [1]: 1 | Threshold [1]: 1.25 µg/mL | adverse effects (ocular pain; 0.05% solution about every 6 hours for three days after LASIK): no significant adverse effects | acute pain from the eye surface (ocular pain; 0.05% solution about every 6 hours for three days, second day after LASIK, medial canthus/closed eye): significantly diminished within minutes | effect on eye dryness (subject's opinion) (dry eyes): useful to alleviate eye dryness | tearing (dry eyes): no increased tearing | reported sensations (dry eyes; medial canthus/closed eye, one subject): slight tingling in their eyelids followed by refreshing sensations in their eyelids and eye surface | Sensory Quality [2]: cool/sting | duration of stinging and burning ([3]; 0.4 mg/ml in isotonic-buffered saline dropped on the open eye): about 1 min | duration of stinging and burning sensations on the eye surface ([3]; 0.05% (0.5 mg/ml) solution, 2-3 drops, opened eyes, three volunteers): about 2 min | redness / vasodilatation on eye surface or eyelids ([3]; 0.05% solution, opened eyes): no evidence of increased redness | duration of robust cooling sensation in the eyes (skin of upper eyes; 5% solution in 100% propylene glycol dabbed on skin of upper eyes, one subject): about 3 hours | effect on eye fatigue, irritation and discomfort (skin of upper eyes; 5% solution in 100% propylene glycol on skin of upper eyes): alleviated their sense of eye fatigue, irritation, and discomfort | stinging and burning sensations ([4]; 0.4 mg/ml applied onto corners of the eye, eyes closed for 1 min): avoided | duration of slight stinging when eyes were opened ([4]; 0.05% solution, medial canthus, eyes closed at least one minute, three subjects): less than 1 minute | duration of sensations of coolness and comfort ([4]; 0.05% solution, medial canthus/closed eye): at least two | sensations of stinging and burning vs 0.05% [4, 8]: slightly increased | tearing, irritation or redness [4, 8]: no signs of tearing was observed, nor of signs of irritation or redness

OC[C@H]1O[C@@](CO)(O[C@H]2O[C@H](CO)[C@@H](O)[C@H](O)[C@H]2O)[C@@H](O)[C@@H]1O [sucrose]
effect of adjunct on stinging and burning sensations of several trialkyl phosphine oxide solutions [5]: substantially reduced | effect of adjunct on initial stinging sensations [6]: reduce the initial stinging sensations

carboxymethylcellulose
effect of adjunct on stinging and burning sensations of several trialkyl phosphine oxide solutions [5]: substantially reduced | effect of adjunct on initial stinging sensations [6]: reduce the initial stinging sensations
